Measured values as given in patent US20150224089A1, “COMBINATIONS OF IKKi/TBK1 INHIBITORS WITH BETA ADRENERGIC AGONISTS OR SYMPATHETIC NERVOUS SYSTEM ACTIVATORS” (THE REGENTS OF THE UNIVERSITY OF MICHIGAN, priority 2014, published 2015).
“Also recorded” adds a separate entry of the source.

Legend:
3T3-L1 adipocytes [1] = test: cAMP levels in 3T3-L1 adipocytes; assay type: cell-based
Experimental: (§1) (A) Glycerol release from 3T3-L1 adipocytes treated with or without different concentrations of TNFα as indicated for 24 hr followed by treatment with or without 10 μM ISO or 50 μM FSK. (B) cAMP levels from 3T3-L1 adipocytes treated with or without 100 ng/ml TNFα for 24 hr followed by treatment with or without 10 μM ISO or 50 μM FSK in the presence or absence of pretreatment of 50 μM Amlexanox (Am). (C) cAMP levels from 3T3-L1 adipocytes treated with or without 100 ng/ml TNFα for 24 hr followed by treatment with or without 50 μM FSK in the presence or absence of pretreatment of 1 μM CAY10576 (CAY). (D) Immunoblots of whole cell lysates from 3T3-L1 adipocytes treated with or without different concentrations of TNFα as same as FIG. 2A for 24 hr followed by treatment with or without 10 μM ISO or 50 μM FSK. Results were replicated in multiple experiments. ‘[’ indicates total HSL. ‘n.s.’ represents non-specific band. Arrow indicates CGI-58. (E) Immunoblots of whole cell lysates from 3T3-L1 adipocytes treated with or without 50 ng/ml TNFα or 100 μg/ml poly (I:C) for 24 hr followed by treatment with or without 10 μM ISO for 15 min in the presence or absence of pretreatment with increasing concentrations (0, 10, 50, and 200 μM) of amlexanox for 30 min.
(A) cAMP levels from 3T3-L1 adipocytes expressing empty vector, Flag-IKKε, or Flag-TBK1 treated with or without 50 μM FSK, 250 μM IBMX, or together for 15 min. (B) cAMP levels from 3T3-L1 adipocytes expressing empty vector, Flag-IKKε, or Flag-TBK1 treated with or without 10 μM ISO or 50 μM FSK together with or without 10 μM Zardaverine (Zarda) for 15 min. (C) 32P phospho-image of in vitro kinase reaction using either immunoprecipitated HA-PDE3B from HEK293T cells or 1 μg MBP (myelin basic protein) as a substrate with recombinant kinases as indicated. (D) Immunoblots of immunoprecipitation with anti-HA antibodies followed by treatment with or without CIP (top panel) and whole cell lysates (bottom panel) from Cos-1 cells co-expressing HA-PDE3B with Flag-IKKε/TBK1 or Flag-IKKε/TBK1 K38A. D.E. stands for dark exposure and L.E. stands for light exposure. (E) Immunoblots of GST-14-3-3 pulldown from HEK293T cells co-expressing HA-PDE3B with Flag-TBK1 or Flag-TBK1 K38A.
Obesity is accompanied by infiltration of proinflammatory macrophages into adipose tissue; these cells secrete inflammatory cytokines, such as TNFα, which generate insulin resistance by stimulating catabolic pathways (Hotamisligil, 2006; Lumeng et al., 2007; Ye and Keller, 2010; Ouchi et al., 2011; herein incorporated by reference in their entireties). Although TNFα is known to increase lipolysis in adipocytes (Zhang et al., 2002; Souza et al., 2003; Green et al., 2004; Plomgaard et al., 2008; herein incorporated by reference in their entireties), there is also evidence of a counterinflammatory response in obesity that may serve to repress energy expenditure (Gregor and Hotamisligil, 2011; Saltiel, 2012; Calay and Hotamisligil, 2013; Reilly et al., 2013; herein incorporated by reference in their entireties). Experiments were conducted during development of embodiments of the present invention using TNFα to model the inflammatory milieu of obese adipose tissue in cell culture to determine whether the cytokine might also regulate β-adrenergic signaling in this context. While short-term treatment with TNFα augmented the increase in cAMP produced by forskolin treatment, this effect declined after 12 hr. […] Thus, the catabolic effects of the proinflammatory cytokine TNFα in adipocytes are transient and followed by an inhibitory phase.
Treatment of 3T3-L1 adipocytes with TNFα for 24 hr induced the expression of IKKε and increased TBK1 phosphorylation at the active site in a manner that was dependent on the activity of IKKβ and the NFκB pathway (Reilly et al., 2013; herein incorporated by reference in its entirety). […]

3T3-L1 adipocytes [2] = test: Immunoblots of β-adrenergic/PKA signaling (HSL, perilipin, PKA substrate, p38 phosphorylation) in 3T3-L1 adipocytes; assay type: cell-based
Experimental: as §1, with “Results were replicated in multiple experiments. ‘[’ indicates total HSL. ‘n.s.’ represents non-specific band.” left out
Experiments were conducted during development of embodiments of the present invention to determine whether the repression of β-adrenergic sensitivity produced by longer-term treatment with TNFα is due to increased activity of the noncanonical IKKs.

| Molecule | isoproterenol- and forskolin-stimulated cAMP production (3T3-L1 adipocytes [1]; TNFα for 24 hr (100 ng/ml), 10 μM ISO or 50 μM FSK) | increase in cAMP produced by forskolin treatment (3T3-L1 adipocytes [1]; short-term treatment with TNFα) | isoproterenol-stimulated β-adrenergic signaling (phosphorylation of HSL, perilipin, PKA substrate motif proteins) (3T3-L1 adipocytes [2]; TNFα for 24 hr, 10 μM ISO) | rescue of TNFα-decreased isoproterenol- and forskolin-stimulated cAMP production (3T3-L1 adipocytes [1]; preincubation with 50 μM amlexanox, 100 ng/ml TNFα 24 hr, 10 μM ISO or 50 μM FSK) | effect on TNFα inhibition of isoproterenol-stimulated β-adrenergic signaling (phospho-PKA substrate, phospho-HSL, phospho-perilipin) (3T3-L1 adipocytes [2]; amlexanox pretreatment 0, 10, 50, 200 μM for 30 min, 50 ng/ml TNFα 24 hr, 10 μM ISO 15 min) | phosphorylation of p38 in response to isoproterenol (3T3-L1 adipocytes [2]; amlexanox pretreatment 0, 10, 50, 200 μM, dose-dependent) | effect on Poly (I:C) inhibition of sensitivity to isoproterenol stimulation (3T3-L1 adipocytes [2]; amlexanox pretreatment, 100 μg/ml poly (I:C) 24 hr, less than with TNFα) |
| --- | --- | --- | --- | --- | --- | --- | --- |
| TNFα | inhibited the production of the second messenger; also recorded: decreased isoproterenol- and forskolin-stimulated cAMP production | augmented | decreased |  |  |  |  |
| CC(C)c1ccc2oc3nc(N)c(C(=O)O)cc3c(=O)c2c1 [amlexanox, 2-amino-7-isopropyl-1-azaxanthone-3-carboxylic acid; 2-amino-7-isopropyl-5-oxo-5H-chromeno[2,3-b]pyridine-3-carboxylic acid] |  |  |  | largely rescued | blocked the inhibitory effect of TNFα | dramatically augmented | partially restored |
